The values that follow come from patent US8410302B2, “Methoxyimino compounds and fungicide composition comprising same” (Kyung Nong Corporation, priority 2007, dated 2013).

The subject of one assay is Erysiphae graminis. As to the kind of experiment: Fungicidal activity against barley powdery mildew (BPM) disease, control value. It counts as in vivo. The following applies: 168 h, read-out: BPM control value (C.V.).
A further assay deals with Phytophthora infestans. As to the kind of experiment: whole plant or invertebrate. The following applies: Phytophthora infestans, in Solanum lycopersicum, read-out: TLB control value (C.V.). It counts as in vivo.
The test system of a further assay is Botrytis cinerae. As to the kind of experiment: Fungicidal activity against cucumber gray mold rot (CGM) disease, control value. Format: in vivo. The settings on record: Botrytis, read-out: CGM control value (C.V.).
Assay [1] relates to Pyricularia oryzae Carvara KA301. The experiment in a line: whole plant or invertebrate. The following applies: Pyricularia oryzae, read-out: RCB control value (C.V.). Format: in vivo.
Another assay concerns Rhizoctonia solani AG-1. The experiment in a line: Fungicidal activity against rice sheath blight (RSB) disease, control value. The settings on record: Rhizoctonia solani, AG1, in Oryza sativa, read-out: RSB control value (C.V.).
For a further assay, the system named is Puccinia recondita. As to the kind of experiment: Fungicidal activity against wheat leaf rust (WLR) disease, control value. Format: in vivo. The settings on record: Puccinia recondita, read-out: WLR control value (C.V.).

Consider `CNC(=O)/C(=N/OC)c1ccccc1COc1ccc(F)cc1C=C(Cl)Cl` [Example 56, (E)-2-(2-((2-(2,2-dichlorovinyl)-4-fluorophenoxy)methyl)phenyl)-2-methoxyimino-N-methylacetamide], for which the pest or weed control at 2 ppm in the assay with Erysiphae graminis was found to be 100%; in the assay with Phytophthora infestans, 95%; in assay [1] it was 97%; in the assay on Rhizoctonia solani AG-1 it was 95%; with Puccinia recondita, 100%. In addition, the pest or weed control at 10 ppm (in the assay on Erysiphae graminis; in the assay with Phytophthora infestans; in assay [1]; in the assay on Rhizoctonia solani AG-1; in the assay with Puccinia recondita) was 100% in each case. Moreover, the pest or weed control at 50 ppm in the assay on Erysiphae graminis was found to be 100%; in the assay on Phytophthora infestans it was 100%; in the assay with Botrytis cinerae, 20%; in assay [1] it was 100%; in the assay on Rhizoctonia solani AG-1, 100%; in the assay with Puccinia recondita, 100%. The pest or weed control at 100 ppm with Erysiphae graminis stood at 100%; in the assay with Phytophthora infestans, 100%; with Botrytis cinerae it was 65%; in assay [1], 100%; in the assay with Rhizoctonia solani AG-1 it was 100%; in the assay on Puccinia recondita, 100%.
As for `CO/N=C(/C(=O)OC)c1ccccc1COc1ccc(C=C(Cl)Cl)c(Cl)c1` [Example 57, methyl-(E)-2-(2-((3-chloro-4-(2,2-dichlorovinyl)phenoxy)methyl)phenyl)-2-methoxyiminoacetate], the pest or weed control at 2 ppm in the assay with Erysiphae graminis is 100%; in the assay on Phytophthora infestans, 99%; in assay [1] it was 90%; in the assay with Rhizoctonia solani AG-1 it was 90%; in the assay on Puccinia recondita, 95%. Further, the pest or weed control at 10 ppm (with Erysiphae graminis; with Phytophthora infestans; in assay [1]; in the assay with Rhizoctonia solani AG-1; in the assay with Puccinia recondita) was 100% each time. The pest or weed control at 50 ppm with Erysiphae graminis is 100%; in the assay with Phytophthora infestans, 100%; in the assay with Botrytis cinerae it was 20%; in assay [1], 100%; in the assay with Rhizoctonia solani AG-1 it was 100%; in the assay with Puccinia recondita, 100%. Moreover, the pest or weed control at 100 ppm in the assay on Erysiphae graminis turned out to be 100%; in the assay on Phytophthora infestans it was 100%; with Botrytis cinerae it was 75%; in assay [1] it was 100%; with Rhizoctonia solani AG-1 it was 100%; with Puccinia recondita it was 100%.
For the compound `CNC(=O)/C(=N/OC)c1ccccc1COc1ccc(C=C(Cl)Cl)c(Cl)c1` [Example 58, (E)-2-(2-((3-chloro-4-(2,2-dichlorovinyl)phenoxy)methyl)phenyl)-2-methoxyimino-N-methylacetamide], the pest or weed control at 2 ppm came to 100% in the assay with Erysiphae graminis; 99% in the assay on Phytophthora infestans; 100% in assay [1]; 90% with Rhizoctonia solani AG-1; 100% in the assay on Puccinia recondita. In addition, the pest or weed control at 10 ppm (with Erysiphae graminis; in the assay with Phytophthora infestans; in assay [1]; in the assay with Rhizoctonia solani AG-1; in the assay on Puccinia recondita) was 100% each time. Further, the pest or weed control at 50 ppm (in the assay with Erysiphae graminis; in the assay on Phytophthora infestans; in assay [1]; with Rhizoctonia solani AG-1; with Puccinia recondita) was 100% throughout. The pest or weed control at 100 ppm in the assay with Erysiphae graminis was determined as 100%; in the assay with Phytophthora infestans, 100%; in the assay with Botrytis cinerae, 35%; in assay [1], 100%; in the assay with Rhizoctonia solani AG-1 it was 100%; in the assay on Puccinia recondita, 100%.
